Assay results taken from patent publication US6897209B2, “Labelled factor XIIIa substrates” (GE Healthcare Limited, priority 1997, dated 2005).
Each block holds one compound with its values, some of them ahead of it.

Experiments:
Factor XIIIa = biological target: T1, Factor XIIIa (Homo sapiens, UniProt P00488); assay: Factor XIIIa dependency of incorporation (dimethylcasein uptake, normal vs Factor XIII deficient plasma); type: biochemical; details: 1 KBq/ml, 60 minutes; uptake in normal plasma minus Factor XIII deficient plasma
T1 construct: Factor XIII is transformed into its active form Factor XIIIa by thrombin in the presence of calcium ions; from tissue; host or cells: human plasma
T1 sequence (P00488 39-732 limits assumed): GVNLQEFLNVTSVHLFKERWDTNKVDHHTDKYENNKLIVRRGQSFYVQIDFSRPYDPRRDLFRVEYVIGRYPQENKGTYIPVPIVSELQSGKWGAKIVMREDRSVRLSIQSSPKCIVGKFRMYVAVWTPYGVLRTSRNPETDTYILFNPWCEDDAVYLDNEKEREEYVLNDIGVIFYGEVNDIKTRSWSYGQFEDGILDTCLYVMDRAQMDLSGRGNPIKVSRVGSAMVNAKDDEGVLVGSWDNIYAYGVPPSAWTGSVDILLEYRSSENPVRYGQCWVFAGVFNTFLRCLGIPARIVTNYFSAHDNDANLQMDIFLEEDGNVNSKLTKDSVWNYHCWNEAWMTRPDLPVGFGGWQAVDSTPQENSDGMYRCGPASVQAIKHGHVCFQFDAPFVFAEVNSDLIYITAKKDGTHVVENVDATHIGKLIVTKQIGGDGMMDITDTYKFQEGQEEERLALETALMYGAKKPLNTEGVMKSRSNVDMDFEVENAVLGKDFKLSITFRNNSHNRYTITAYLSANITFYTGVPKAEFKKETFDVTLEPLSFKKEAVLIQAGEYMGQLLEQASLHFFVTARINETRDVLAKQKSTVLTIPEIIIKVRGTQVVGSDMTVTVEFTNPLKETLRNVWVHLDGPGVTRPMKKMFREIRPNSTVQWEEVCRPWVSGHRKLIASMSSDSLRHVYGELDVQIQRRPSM
Procedure: The assay was changed by replacing the mercaptoethanol with aprotinin at a final concentration of 2 μg/ml, and dimethylcasein (DMC) was used instead of casein.

[1] = Normal rat biodistribution; type: in vivo; details: i.v., male Wistar rats, Mean±SD n=3
Procedure: The resolution of a clot image is dependant on the combination of rate of incorporation of the radiopharmaceutical and its blood/tissues clearance rate. For this reason the biodistribution of several compounds has been determined in rats. Male Wistar (100-150 g) rats were injected i.v. with 0.1-0.2 ml of radiolabelled tracer solution (8 MBq/ml) and dissected at different times post-injection. The % ID in each of the selected tissues was measured. Some animals were kept in metabolism cages to be able to determine the % ID excreted in urine and faeces. The dissection times used for the majority of the agents was 2, 15, 30, 60, 240 min. Data are shown as % ID, Mean±SD, (n=3).

human plasma clots [2] = assay: Incorporation into human plasma clots (in vitro plasma clot assay); type: biochemical; details: control vials without thrombin and calcium chloride, 60 minutes
Procedure: (§1) Incorporation of radiolabelled substrates into fibrin was investigated by induction of an in vitro human plasma clot in the following manner. To a siliconised 5 ml glass vial was added, (a) 800 μl of Tris(hydroxymethyl)aminomethane buffered saline pH 7.5 containing calcium chloride (50 mM Tris, 150 mM sodium chloride, 4 mM calcium chloride.), (b) 40 μl of physiological salt solution containing 100 units of thrombin per ml, (c) 400 μl of human plasma containing the radiolabelled substrate at a concentration of typically 10 kBq/ml. To aid induction of clot a roughened glass rod was added to the reaction vial. Control vials were prepared similarly but with the omission of thrombin and calcium chloride.
(§2) The proportion of total radioactivity was calculated by counting in suitable detection apparatus.
(§3) The fraction of radioactivity retained on the filter, after subtraction of the non-specific binding determined from the control, is a measure of incorporation into the filtered clots.

human plasma clots [3] = biological target: T2, human plasma clots (Homo sapiens, UniProt P00488); assay: as above; type: biochemical; details: for % specific uptake*: % retained with thrombin − % retained no thrombin; for % retained in plasma clot assay (with thrombin): human plasma with thrombin and calcium chloride, 60 minutes, ca. 20° C.
T2 construct: Factor XIII is transformed into its active form Factor XIIIa by thrombin in the presence of calcium ions; from tissue; host or cells: human plasma, clotted in vitro with thrombin and calcium chloride
T2 sequence (P00488 39-732): T1 sequence (P00488 39-732 limits assumed)
Procedure: as §1, §2, §3

[4] = system: clots induced in rat inferior vena cava; assay: Incorporation into clots induced in a rat model (rat inferior vena cava model); type: in vivo; details: rat IVC model; for Clot/Blood / Clot/Heart / Clot/Liver / Clot/Lung: 60 min; for % ID/g (clot uptake) / Relative conc (cpm/g of clot by dose/g animal): compound injected 5 min post-induction, clot removed after 60 min
Procedure: The rats (Male Wistar, 250-350 g) were anaesthetised with 15% urethane. After laparotomy, the vena cava was isolated and freed of surrounding fat tissue. […] The average weight of the clots formed in this model was around 27 mg, n=32, (5-50 mg range). The so compounds were injected 5 min post-induction. After 60 min the animals were sacrificed and the clot removed, weighed and counted. Other tissues e.g. blood, lung, heart, were also dissected and counted. The uptake of tracer into the clot was determined as the relative concentration (cpm/g of clot by dose/g animal ) and clot to background tissue.

Compound: CC(CNCc1ccccc1O)(CNCc1ccccc1O)CNC(=O)c1ccc(S(=O)(=O)NCCCCCN)cc1 [Compound 25, N,N′-bis-(2-hydroxybenzyl)-2-(4-N-(5-aminopentyl)amidosulphonyl)benzamidomethyl-2-methyl-propane-1,3-diamine]
- % specific DMC casein uptake (Factor XIIIa): 26%
- % ID Blood ([1]; 2 min post-injection): 23.0 ± 2.9 % ID
- % ID GI Tract ([1]; 2 min post-injection): 8.53 ± 0.66 % ID
- % ID Heart ([1]; 2 min post-injection): 0.74 + 0.1 % ID
- % ID Kidney ([1]; 2 min post-injection): 5.37 ± 1.3 % ID
- % ID Liver ([1]; 2 min post-injection): 13.6 ± 2.47 % ID
- % ID Lung ([1]; 2 min post-injection): 3.42 ± 0.39 % ID
- % ID Muscle ([1]; 2 min post-injection): 25.7 ± 2.0 % ID
- % ID Urine ([1]; 2 min post-injection): 0.11 ± 0.06 % ID
- % ID Blood ([1]; 15 min post-injection): 3.9 ± 0.17 % ID
- % ID GI Tract ([1]; 15 min post-injection): 45.68 ± 4.1 % ID
- % ID Heart ([1]; 15 min post-injection): 0.16 + 0.01 % ID
- % ID Kidney ([1]; 15 min post-injection): 7.13 ± 0.4 % ID
- % ID Liver ([1]; 15 min post-injection): 13.5 ± 0.14 % ID
- % ID Lung ([1]; 15 min post-injection): 1.37 ± 0.03 % ID
- % ID Muscle ([1]; 15 min post-injection): 8.93 ± 0.38 % ID
- % ID Urine ([1]; 15 min post-injection): 4.62 ± 2.9 % ID
- % ID Blood ([1]; 30 min post-injection): 2.12 ± 0.34 % ID
- % ID GI Tract ([1]; 30 min post-injection): 54.7 ± 2.09 % ID
- % ID Heart ([1]; 30 min post-injection): 0.1 + 0.03 % ID
- % ID Kidney ([1]; 30 min post-injection): 5.6 ± 0.1 % ID
- % ID Liver ([1]; 30 min post-injection): 9.66 ± 1.65 % ID
- % ID Lung ([1]; 30 min post-injection): 1.17 ± 0.01 % ID
- % ID Muscle ([1]; 30 min post-injection): 6.43 ± 0.41 % ID
- % ID Urine ([1]; 30 min post-injection): 11.6 ± 2.0 % ID
- % ID Blood ([1]; 60 min post-injection): 1.84 ± 0.19 % ID
- % ID GI Tract ([1]; 60 min post-injection): 55.87 ± 2.5 % ID
- % ID Heart ([1]; 60 min post-injection): 0.08 + 0.03 % ID
- % ID Kidney ([1]; 60 min post-injection): 4.24 ± 0.4 % ID
- % ID Liver ([1]; 60 min post-injection): 6.73 ± 0.48 % ID
- % ID Lung ([1]; 60 min post-injection): 0.96 ± 0.11 % ID
- % ID Muscle ([1]; 60 min post-injection): 4.95 ± 0.09 % ID
- % ID Urine ([1]; 60 min post-injection): 17.5 ± 1.7 % ID
- % ID Blood ([1]; 240 min post-injection): 0.62 ± 0.16 % ID
- % ID GI Tract ([1]; 240 min post-injection): 71.3 ± 0.7 % ID
- % ID Heart ([1]; 240 min post-injection): 0.02 + 0.01 % ID
- % ID Kidney ([1]; 240 min post-injection): 3.19 ± 0.1 % ID
- % ID Liver ([1]; 240 min post-injection): 3.97 ± 0.53 % ID
- % ID Lung ([1]; 240 min post-injection): 0.21 ± 0.05 % ID
- % ID Muscle ([1]; 240 min post-injection): 1.3 ± 0.38 % ID
- % ID Urine ([1]; 240 min post-injection): 16.81 ± 0.43 % ID
- % retained in plasma clot assay (no thrombin) (human plasma clots [2]): 1.9%
- % specific uptake* (human plasma clots [3]): 12.9%
- % retained in plasma clot assay (with thrombin) (human plasma clots [3]): 15%
- Clot/Blood [4]: 3.3
- Clot/Heart [4]: 5
- Clot/Liver [4]: 0.65
- Clot/Lung [4]: 1.5
- % ID/g (clot uptake) [4]: 0.29 ± 0.09 % ID/g
- Relative conc (cpm/g of clot by dose/g animal) [4]: 0.8 ± 0.2

Compound: CC(=NO)C(C)(C)NCC(C)(CN)CNC(C)(C)C(C)=NO (stereo not drawn) [Compound 2, 6-aminomethyl-3,3,6,9,9-pentamethyl-4,8-diazaundecane-2, 1 0-dione dioxime]
- % retained in plasma clot assay (no thrombin) (human plasma clots [2]): 0.3%
- % specific uptake* (human plasma clots [3]): 1.7%
- % retained in plasma clot assay (with thrombin) (human plasma clots [3]): 2%

Compound: 1-(4-(N-(5-aminopentyl)-amidosulphonyl)benzyl)-1,4,8,11-tetraazacyclotetradecane [Compound 20]
- % retained in plasma clot assay (no thrombin) (human plasma clots [2]): 0.6%

Compound: CC(=NO)C(C)(C)NCC(C)(CNC(=O)[C@@H](Cc1ccccc1)NC(=O)CCCCCN)CNC(C)(C)C(C)=NO (stereo partly drawn) [Compound 5, 3,3,6,9,9-pentamethyl-6-N-[N-(6-aminohexanoyl)-D-phenylalanyl]aminomethyl-4,8-diazaundecane-2,10-dione dioxime]
- % specific DMC casein uptake (Factor XIIIa): 10%
- % retained in plasma clot assay (no thrombin) (human plasma clots [2]): 1.9%
- % specific uptake* (human plasma clots [3]): 4.1%
- % retained in plasma clot assay (with thrombin) (human plasma clots [3]): 6%

Compound: 3,3,6,9,9-pentamethyl-6-N-[α-N-(4-N-(5-aminopentyl)amidosulphonyl)benzoyl)amino-polethyleneglycol)-ω-carbonyl]aminomethyl-4,8-diazaundecane-2,10-dione dioxime [Compound 14]
- % retained in plasma clot assay (no thrombin) (human plasma clots [2]): 7.2%
- % specific uptake* (human plasma clots [3]): 27.8%
- % retained in plasma clot assay (with thrombin) (human plasma clots [3]): 35%
- Clot/Blood [4]: 1.3
- Clot/Heart [4]: 2.8
- Clot/Liver [4]: 2.6
- Clot/Lung [4]: 1.5
- % ID/g (clot uptake) [4]: 0.18 ± 0.03 % ID/g
- Relative conc (cpm/g of clot by dose/g animal) [4]: 0.54 ± 0.11

Compound: CC(=O)SCC(=O)NCC(=O)NCC(=O)NCC(=O)NCCCNC(=O)c1ccc(S(=O)(=O)NCCCCCN)cc1 [Compound 23, N-[S-acetyl-mercaptoacatylglycylglycylglycyl)-N′-(4-N-(5-aminopentyl)amidosulphonyl)benzoyl propane-1,3-diamine]
- % specific DMC casein uptake (Factor XIIIa): 24.5%
- % retained in plasma clot assay (no thrombin) (human plasma clots [2]): 0.8%
- % specific uptake* (human plasma clots [3]): 14.2%
- % retained in plasma clot assay (with thrombin) (human plasma clots [3]): 16%

Further lines, with some results ahead:

- % specific DMC casein uptake (Factor XIIIa): 6%
- % specific uptake* (human plasma clots [3]): 4.7%
- % retained in plasma clot assay (with thrombin) (human plasma clots [3]): 5%
Compound: CC(=NO)C(C)(C)NCC(C)(CNC(=O)[C@@H](CO)NC(=O)[C@@H](CO)NC(=O)[C@@H](CO)NC(=O)c1ccc(S(=O)(=O)NCCCCCN)cc1)CNC(C)(C)C(C)=NO (stereo partly drawn) [Compound 10, 3,3,6,9,9-pentamethyl-6-N-[N-(4-N-(5aminopentyl)amidosulphonyl)benzoyl-D-serine-D-serine-D-serine]aminomethyl-4,8-diazaundecane-2,10-dione dioxime]
- % retained in plasma clot assay (no thrombin) (human plasma clots [2]): 0.3%

- % specific DMC casein uptake (Factor XIIIa): 13%
- % specific uptake* (human plasma clots [3]): 1.5%
- % retained in plasma clot assay (with thrombin) (human plasma clots [3]): 2%
Compound: CC(=NO)C(C)(C)NCC(C)(CNC(=O)c1ccc(NC(=O)CCCCCN)cc1)CNC(C)(C)C(C)=NO (stereo not drawn) [Compound 6, 3,3,6,9,9-pentamethyl-6-N-[4-N-(6aminohexanoyl)aminobenzoyl]aminomethyl-4,8-diazaundecane-2.10-dione dioxime]
- % retained in plasma clot assay (no thrombin) (human plasma clots [2]): 0.5%

- % specific DMC casein uptake (Factor XIIIa): 24%
- % specific uptake* (human plasma clots [3]): 12.8%
- % retained in plasma clot assay (with thrombin) (human plasma clots [3]): 16%
Compound: CC(=NO)C(C)(C)NCC(C)(CNC(=O)N1CCN(CNC(=O)c2ccc(S(=O)(=O)NCCCCCN)cc2)CC1)CNC(C)(C)C(C)=NO (stereo not drawn) [Compound 11, 3,3,6,9,9-pentamethyl-6-N-[4-N-{4-(N-(5-aminopentyl)amidosulphonyl)benzoyl}aminomethylpiperazinylcarbonyl]aminomethyl-4,8-diazaundecane-2,10-dione dioxime]
- % retained in plasma clot assay (no thrombin) (human plasma clots [2]): 3.2%

- % specific DMC casein uptake (Factor XIIIa): 29%
- % specific uptake* (human plasma clots [3]): 15.5%
- % retained in plasma clot assay (with thrombin) (human plasma clots [3]): 20%
Compound: CC(=NO)C(C)(C)NCC(C)(CNC(=O)c1ccc(S(=O)(=O)NCCSCCN)cc1)CNC(C)(C)C(C)=NO (stereo not drawn) [Compound 9, 3,3,6,9,9-pentamethyl-6-(4-(N-[(S-aminoethyl)thioethyl]amidosulphonyl)benzamidomethyl)4,8-diazaundecane-2,10-dione dioxime]
- % retained in plasma clot assay (no thrombin) (human plasma clots [2]): 4.5%
